The NIST ThermoML archive (doi:10.1016/j.jct.2006.04.007)

Assay: mn = molality of the nth substance listed, in mol/kg
Details: 350 kPa, Liquid; for apparent molar heat capacity: Extra sensitive DSC

CNC(C)=O [N-methylacetamide] + O
Details	apparent molar heat capacity, 303.15 K [J/K/mol]	apparent molar heat capacity, 308.15 K [J/K/mol]	apparent molar heat capacity, 313.15 K [J/K/mol]	apparent molar heat capacity, 318.15 K [J/K/mol]	apparent molar heat capacity, 323.15 K [J/K/mol]	apparent molar heat capacity, 328.15 K [J/K/mol]	mass density, 308.15 K [kg/m3]	mass density, 318.15 K [kg/m3]	mass density, 328.15 K [kg/m3]
m1 = 0.015	–	236	243	252	259	260	994.14	990.32	985.77
m1 = 0.04	–	250.5	256.4	264.9	268.9	266.5	994.12	990.29	985.75
m1 = 0.07	254.5	257.5	259.8	261.2	262.6	265	994.1	990.24	985.75
m1 = 0.1001	259	262.8	264.8	266	267.4	269.3	994.07	990.21	985.75
m1 = 0.2002	258.7	261.8	263.9	265.6	267.4	269.2	993.96	990.07	–
m1 = 0.4	254.53	257.09	259.34	261.43	263.5	265.52	993.88	989.92	–
m1 = 0.599	264	266	267.9	269.7	271.4	273.1	993.8	989.82	–
m1 = 0.8028	254.1	256.5	258.7	260.8	262.77	264.63	993.77	989.72	–
m1 = 1	253.5	255.95	258.14	260.24	262.22	264.06	993.7	989.61	–
